Target: KRas G12D (Homo sapiens, UniProt P01116, G12D)
Experiment: KRas G12D Binding Assay (TR-FRET displacement of labeled tracer)
Set-up: corresponding to amino acids 1:169, produced at Array BioPharma Inc; biotin (biotinylated)
Details: TR-FRET displacement of Cy5 labelled tracer, Biotinylated GDP-loaded KRAS G12D (amino acids 1:169), 60 minute incubation at 22° C.
Experimental: This Example illustrates that exemplary compounds of the present invention bind to KRas G12D and are capable of displacing a labeled tracer ligand occupying the KRas G12D binding site. The ability of a compound to bind to KRAS G12D was measured using a TR-FRET displacement assay. Biotinylated GDP-loaded recombinant human KRAS G12D (corresponding to amino acids 1:169, produced at Array BioPharma Inc.) was incubated with a custom-made Cy5 labelled tracer, europium labelled streptavidin and compound (2% DMSO final) in buffer (50 mM HEPES [pH 7.5], 5 mM MgCl2, 0.005% Tween-20 & 1 mM DTT). After a 60 minute incubation at 22° C., the reaction was measured using a PerkinElmer EnVision multimode plate reader via TR-FRET dual wavelength detection, and the percent of control (POC) calculated using a ratiometric emission factor. […] The POC values were fit to a 4-parameter logistic curve and the IC50 value was determined as the concentration where the curve crosses 50 POC.

Sequence of KRas G12D (P01116 1-169 isoform P01116-2 G12D): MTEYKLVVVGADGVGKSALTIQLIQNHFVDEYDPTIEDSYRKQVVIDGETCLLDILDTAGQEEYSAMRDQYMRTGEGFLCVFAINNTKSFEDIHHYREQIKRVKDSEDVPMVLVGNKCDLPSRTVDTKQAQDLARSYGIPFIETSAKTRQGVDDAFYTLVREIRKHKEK

| Compound | IC50 [nM] |
| --- | --- |
| Oc1cc(-c2ncc3c(NCC4(N5CCOCC5)CCC4)nc(OC[C@@]45CCCN4C[C@H](F)C5)nc3c2F)c2ccccc2c1 [Example 4, 4-(8-fluoro-2-(((2R,7aS)-2-fluorotetrahydro-1H-pyrrolizin-7a(5H)-yl)methoxy)-4-(((1-morpholinocyclobutyl)methyl)amino)pyrido[4,3-d]pyrimidin-7-yl)naphthalen-2-ol] | 958 |
| CN(C)C1(CNc2nc(OCC34CCCN3C[C@H](F)C4)nc3c(F)c(-c4cccc5cccc(C6CC6)c45)ncc23)CCC1 (mixture of isomers) [Example 26, 7-(8-cyclopropylnaphthalen-1-yl)-N-((1-(dimethylamino)cyclobutyl)methyl)-8-fluoro-2-(((2S,7aR)-2-fluorotetrahydro-1H-pyrrolizin-7a(5H)-yl)methoxy)pyrido[4,3-d]pyrimidin-4-amine] | 344 |
| CN(C)C1(CNc2nc(OC[C@@]34CCCN3C[C@H](F)C4)nc3c(F)c(-c4cc(O)cc5ccccc45)ncc23)CCOCC1 [Example 41, 4-(4-(((4-(dimethylamino)tetrahydro-2H-pyran-4-yl)methyl)amino)-8-fluoro-2-(((2R,7aS)-2-fluorotetrahydro-1H-pyrrolizin-7a(5H)-yl)methoxy)pyrido[4,3-d]pyrimidin-7-yl)naphthalen-2-ol bis(2,2,2-trifluoroacetate)] | 684 |
| CN(C)C1(CNc2nc(OC[C@@]34CCCN3C[C@H](F)C4)nc3c(F)c(-c4cccc5cccc(F)c45)ncc23)CCC1 [Example 22, N-((1-(dimethylamino)cyclobutyl)methyl)-8-fluoro-7-(8-fluoronaphthalen-1-yl)-2-(((2R,7aS)-2-fluorotetrahydro-1H-pyrrolizin-7a(5H)-yl)methoxy)pyrido[4,3-d]pyrimidin-4-amine] | 1320 |
| CC(C)(O)CNc1nc(OC[C@@]23CCCN2C[C@H](F)C3)nc2c(F)c(-c3cccc4cccc(Cl)c34)ncc12 [Example 15, 1-((7-(8-chloronaphthalen-1-yl)-8-fluoro-2-(((2R,7aS)-2-fluorotetrahydro-1H-pyrrolizin-7a(5H)-yl)methoxy)pyrido[4,3-d]pyrimidin-4-yl)amino)-2-methylpropan-2-ol] | 3150 |
| CN(C)C(C)(C)CNc1nc(OC[C@]23CCCN2C[C@@H](F)C3)nc2c(F)c(-c3cc(O)cc4ccccc34)ncc12 [Example 42, 4-(4-((2-(dimethylamino)-2-methylpropyl)amino)-8-fluoro-2-(((2S,7aR)-2-fluorotetrahydro-1H-pyrrolizin-7a(5H)-yl)methoxy)pyrido[4,3-d]pyrimidin-7-yl)naphthalen-2-ol bis(2,2,2-trifluoroacetate)] | 211 |
| CN(C)C(C)(C)CNc1nc(OCC23CCCN2CCC3)nc2c(F)c(-c3cccc4cccc(Cl)c34)ncc12 [Example 55, N^1-(7-(8-chloronaphthalen-1-yl)-8-fluoro-2-((hexahydro-1H-pyrrolizin-7a-yl)methoxy)pyrido[4,3-d]pyrimidin-4-yl)-N^2,N^2,2-trimethylpropane-1,2-diamine] | 938 |
| CN(C)C1(CNc2nc(OCC34CCCN3CCC4)nc3c(F)c(-c4cccc(Cl)c4C4CC4)ncc23)CCC1 [Example 16, 7-(3-chloro-2-cyclopropylphenyl)-N-((1-(dimethylamino)cyclobutyl)methyl)-8-fluoro-2-((tetrahydro-1H-pyrrolizin-7a(5H)-yl)methoxy)pyrido[4,3-d]pyrimidin-4-amine] | 146 |
| Oc1cc(-c2ncc3c(NC[C@]45C[C@H]4CCN5)nc(OC[C@@]45CCCN4C[C@H](F)C5)nc3c2F)c2ccccc2c1 [Example 40, 4-(4-((((1S,5R)-2-azabicyclo[3.1.0]hexan-1-yl)methyl)amino)-8-fluoro-2-(((2R,7aS)-2-fluorotetrahydro-1H-pyrrolizin-7a(5H)-yl)methoxy)pyrido[4,3-d]pyrimidin-7-yl)naphthalen-2-ol bis(2,2,2-trifluoroacetate)] | 5150 |
| CC(C)c1c(Cl)cccc1-c1ncc2c(NCC3(N(C)C)CCC3)nc(OCC34CCCN3CCC4)nc2c1F [Example 47, 7-(3-chloro-2-isopropylphenyl)-N-((1-(dimethylamino)cyclobutyl)methyl)-8-fluoro-2-((tetrahydro-1H-pyrrolizin-7a(5H)-yl)methoxy)pyrido[4,3-d]pyrimidin-4-amine] | 513 |
| CN(C)C1(CNc2nc(OCCc3nccn3C)nc3c(F)c(-c4cc(O)cc5ccccc45)ncc23)CCC1 [Example 31] | 857 |
| CC(C)c1ccccc1-c1ncc2c(NCC3(N(C)C)CCC3)nc(OC[C@@]34CCCN3C[C@H](F)C4)nc2c1F [Example 10, N-((1-(dimethylamino)cyclobutyl)methyl)-8-fluoro-2-(((2R,7aS)-2-fluorotetrahydro-1H-pyrrolizin-7a(5H)-yl)methoxy)-7-(2-isopropylphenyl)pyrido[4,3-d]pyrimidin-4-amine bis(2,2,2-trifluoroacetate)] | 3720 |
| Cc1cccc2cccc(-c3ncc4c(NCC5(N(C)C)CCC5)nc(OC[C@@]56CCCN5C[C@H](F)C6)nc4c3F)c12 [Example 2, N-((1-(dimethylamino)cyclobutyl)methyl)-8-fluoro-2-(((2R,7aS)-2-fluorotetrahydro-1H-pyrrolizin-7a(5H)-yl)methoxy)-7-(8-methylnaphthalen-1-yl)pyrido[4,3-d]pyrimidin-4-amine bis(2,2,2-trifluoroacetate)] | 269 |
| NC1(CNc2nc(OCC34CCCN3CCC4)nc3c(F)c(-c4cccc5cccc(F)c45)ncc23)CCC1 [Example 60, N-((1-aminocyclobutyl)methyl)-8-fluoro-7-(8-fluoronaphthalen-1-yl)-2-((hexahydro-1H-pyrrolizin-7a-yl)methoxy)pyrido[4,3-d]pyrimidin-4-amine] | 2120 |
| NC1CC(Nc2nc(OCC34CCCN3CCC4)nc3c(F)c(-c4cccc5cccc(F)c45)ncc23)C12CCC2 (stereo not shown) [Example 62, N^1-(8-fluoro-7-(8-fluoronaphthalen-1-yl)-2-((hexahydro-1H-pyrrolizin-7a-yl)methoxy)pyrido[4,3-d]pyrimidin-4-yl)spiro[3.3]heptane-1,3-diamine] | 203 |
| CN1CCC[C@H]1COc1nc(NCC2(N(C)C)CCC2)c2cnc(-c3cc(O)cc4ccccc34)c(F)c2n1 [Example 11, (S)-4-(4-(((1-(dimethylamino)cyclobutyl)methyl)amino)-8-fluoro-2-((1-methylpyrrolidin-2-yl)methoxy)pyrido[4,3-d]pyrimidin-7-yl)naphthalen-2-ol bis(2,2,2-trifluoroacetate)] | 98 |
| Cc1cc2[nH]ncc2c(-c2ncc3c(NCC4(N(C)C)CCC4)nc(OC[C@@]45CCCN4C[C@H](F)C5)nc3c2F)c1Cl [Example 12, 7-(5-chloro-6-methyl-1H-indazol-4-yl)-N-((1-(dimethylamino)cyclobutyl)methyl)-8-fluoro-2-(((2R,7aS)-2-fluorotetrahydro-1H-pyrrolizin-7a(5H)-yl)methoxy)pyrido[4,3-d]pyrimidin-4-amine bis(2,2,2-trifluoroacetate)] | 100 |
| CN(C)C1(CNc2nc(OC[C@@]34CCCN3C[C@H](F)C4)nc3c(F)c(-c4cccc5cccc(C(F)(F)F)c45)ncc23)CCC1 [Example 3, N-((1-(dimethylamino)cyclobutyl)methyl)-8-fluoro-2-(((2R,7aS)-2-fluorotetrahydro-1H-pyrrolizin-7a(5H)-yl)methoxy)-7-(8-(trifluoromethyl)naphthalen-1-yl)pyrido[4,3-d]pyrimidin-4-amine] | 239 |
| CN1CCC[C@H]1COc1nc(NC2C3CNCC32)c2cnc(-c3cc(O)cc4ccccc34)c(F)c2n1 (stereo partly drawn) [Example 5, 4-(4-((3-azabicyclo[3.1.0]hexan-6-yl)amino)-8-fluoro-2-(((S)-1-methylpyrrolidin-2-yl)methoxy)pyrido[4,3-d]pyrimidin-7-yl)naphthalen-2-ol bis(2,2,2-trifluoroacetate)] | 2260 |
| CCc1c(F)ccc2cc(O)cc(-c3ncc4c(NCC5(N(C)C)CCC5)nc(OC[C@@]56CCCN5C[C@H](F)C6)nc4c3F)c12 [Example 57, 4-(4-(((1-(dimethylamino)cyclobutyl)methyl)amino)-8-fluoro-2-(((2R,7aS)-2-fluorohexahydro-1H-pyrrolizin-7a-yl)methoxy)pyrido[4,3-d]pyrimidin-7-yl)-5-ethyl-6-fluoronaphthalen-2-ol] | 1.1 |
| CN(C)C1(CNc2nc(OC[C@]34CCCN3[C@@H](COC(=O)N3CCCC3)CC4)nc3c(F)c(-c4cccc5cccc(Cl)c45)ncc23)CCC1 [Example 49, ((3R,7aR)-7a-(((7-(8-chloronaphthalen-1-yl)-4-(((1-(dimethylamino)cyclobutyl)methyl)amino)-8-fluoropyrido[4,3-d]pyrimidin-2-yl)oxy)methyl)hexahydro-1H-pyrrolizin-3-yl)methyl pyrrolidine-1-carboxylate] | 232 |
| CCc1c(F)ccc2cccc(-c3ncc4c(NCC5(N(C)C)CCC5)nc(OCC56CCCN5CCC6)nc4c3F)c12 [Example 35, N-((1-(dimethylamino)cyclobutyl)methyl)-7-(8-ethyl-7-fluoronaphthalen-1-yl)-8-fluoro-2-((tetrahydro-1H-pyrrolizin-7a(5H)-yl)methoxy)pyrido[4,3-d]pyrimidin-4-amine bis(2,2,2-trifluoroacetate)] | 30.4 |

Reference: patent US12655160B2, “KRAS G12D inhibitors” (Mirati Therapeutics, Inc., priority 2020, dated 2026)
